Assay results as given in patent US20190038641A1, “COMBINATION THERAPY FOR CASTRATION-RESISTANT PROSTRATE CANCER” (The Board of Regents of the University of Texas System, priority 2016, published 2019).

How the values were obtained:
Type in all cases: cell-based, human
[1] = tested on: HSD3β-1; test: Regulation of HSD3β-1 expression (quantitative RT-PCR, Western blot) in castration-resistant prostate cancer cell lines; details: C4-2B and C4-2 castration-resistant prostate cancer cell lines; FIG. 1
Source text: FIG. 1. Regulation of HSD3β-1 in C4-2B castration-resistant cell lines.

[2] = tested on: CYP24A1; test: Regulation of CYP24A1 mRNA expression in C4-2B castration-resistant cells (QRT-PCR)
Source text: FIG. 2. Regulation of CYP24A1 in C4-2B castration resistant cell lines.
CYP24A1 induction by calcitriol has been reported by many laboratories. However, complete suppression of this induction by androgen has not been reported in the literature.
(§1) Dampened vitamin D/VDR-induced CYP24A1 mRNA expression in the presence of androgen is beneficial, as it would prevent ligand degradation, thereby enhancing VDR signaling.

[3] = tested on: SULT2B1; test: QRT-PCR assay of SULT2B1 mRNAs in C4-2B cells; details: EB1089 10 nM, R1881 1 nM, FIG. 3B
Source text: as §1

SMILES | expression of HSD3β-1 (messenger RNA and protein levels) [1] | induction of CYP24A1 ([2]; C4-2B castration-resistant cells, calcitriol with or without androgen, FIG. 2) | CYP24A1 mRNA expression (induction) ([2]; C4-2B cells, EB1089 10 nM, R1881 1 nM, FIG. 3A) [fold] | induction of SULT2B1 mRNAs [3]
C=C1/C(=C\C=C2/CCC[C@]3(C)[C@@H]([C@H](C)CCCC(C)(C)O)CC[C@@H]23)C[C@@H](O)C[C@@H]1O [calcitriol, 1,25-dihydroxycholecalciferol] | strongly induced | three orders of magnitude and more |  | 
C=C1/C(=C\C=C2/CCC[C@]3(C)[C@@H]([C@H](C)/C=C/C=C/C(O)(CC)CC)CC[C@@H]23)C[C@@H](O)C[C@@H]1O [EB1089] |  |  | ~2000 | induction
